# Results: patent US20060242728A1, “Chemically-inducible promotors for the expression of proteins in plants” (priority 2003, published 2006)
# Columns and labels:
# NIMIN-2 promoter = assay: GUS reporter gene activity in leaf discs of transgenic lines floated on inducer; format: cell-based, Arabidopsis thaliana; settings: leaf discs floated on 1 mM SA or 140 mg/l Bion, 3 days, protein extracts; FIG. 3
# Method: (§1) For characterizing the influence of chemicals on the activity of the NIMIN promoters, leaf discs were punched from the transgenic lines NIMIN1-GUS and NIMIN2-GUS. As a control, PR-1a promoter fusions were used. The leaf discs were floated on 1 mM SA, 140 mg/l Bion (a functional analogue to salicylic acid) or water. After 3 days, protein extracts were prepared and the activity of the GUS reporter gene in the extracts was assayed. The resulting reporter gene activities were 5 times higher In the NIMIN-2 promoter fusions than In PR-1a promoter fusions (cf. FIG. 3). Further, leaf discs from the transgenic lines NIMIN1-GUS and NIMIN2-GUS were incubated with different salicylic acid concentrations.
# NIMIN promoters = assay: GUS reporter gene activity in leaf discs incubated with different salicylic acid concentrations; format: cell-based, Arabidopsis thaliana; settings: leaf discs of NIMIN1-GUS and NIMIN2-GUS lines; FIGS. 4 and 5
# Method: as §1
# NIMIN-1 mRNA = settings: cited from earlier work
# NIMIN-2 mRNA = settings: cited from earlier work
SMILES,reporter gene (GUS) activity in NIMIN-2 promoter fusions relative to PR-1a promoter fusions (NIMIN-2 promoter) [times],activity of the NIMIN promoters versus inducer concentration (NIMIN promoters),inducibility of NIMIN-1 mRNA (NIMIN-1 mRNA),inducibility of NIMIN-2 mRNA (NIMIN-2 mRNA)
O=C(O)c1ccccc1O [salicylic acid],5,depends on the salicyclic acid concentration,inducible,inducible
CSC(=O)c1cccc2nnsc12 [Bion],5,,inducible,inducible
